Reference: patent US6906061B2, “Pharmaceutical agent containing Rho kinase inhibitor” (Mitsubishi Pharma Corporation, priority 1996, dated 2005)
Counter-ions that a name gives are not always drawn.

Tests used:
[1] = tested on: hind limb skin blood flow; assay: Peripheral blood flow increasing action in STZ-induced diabetic rats; assay type: in vivo, rat; settings: intravenous, 1 μg
Experimental: Peripheral Blood Flow Increasing Action
Streptozotocin (STZ, 65 mg/kg) was intravenously injected to male SD rats (body weight 200-300 g) to prepare diabetic rats. One month later, STZ-induced diabetic rats were anesthetized with pentobarbital sodium and the blood flow in the hind limb skin was measured with laser blood flowmeter (ALF21R, Advance). The test compound was intravenously administered via catheter dwelled in the carotid arteries, and hind limb skin blood flow increasing action was observed. The blood flow increasing action of the test compound was expressed by increase percentage from the blood flow before administration.

[2] = tested on: smooth muscle cell (SMC) from rat aorta; assay: Inhibition of growth of vascular smooth muscle cell; assay type: cell-based; settings: 48 hours, MTT
Experimental: Inhibition of Growth of Vascular Smooth Muscle Cell
The separation from the artery of rat and culture of smooth muscle cell (SMC) followed the explant method of Ross (Ross, R. and Glomset, J. A., N. Engl. J. Med., 295, 369-420, 1976). Male wistar rats (10 week old) was slaughtered by cutting the carotid arteries and aorta of thorax was removed. After removal of fat tissues around the tunica externa and peeling of tunica intima, the artery was minced and incubated in 10% fetal bovine serum (FBS)-containing DMEM medium at 37° C. under 5% CO2 gas. Seven days later, the out-grown cells were separated by trypsin treatment, washed with phosphate-buffered saline (PBS) and incubated in 10% FBS-containing DMEM medium in a 80 cm^2 culture flask. The cells of subculture 2 were suspended in 10% FBS-containing DMEM medium at 5×10^4 cells/ml and 100 μl thereof per well was added to 96 well collagen-coated plate, which was incubated at 37° C. under 5% CO2 gas for one day. The test compound was appropriately diluted with dimethyl sulfoxide (DMSO) and added to the 96 well plate. The concentration of DMSO in the medium was adjusted to 1%. After 48 hours, 10 μl of MTT solution (5 mg/ml) was added and, 4 hours later, 10% sodium dodecyl sulfate-0.01 N hydrochloric acid (50 μl) was added. The absorbance at 570 nm was measured the following day by an immunoreader. The SMC growth inhibitory action of the test compound was shown by inhibition percentage calculated by the following formula The results are shown in Table 10.

mouse femoral bone = assay: Inhibition of bone resorption (in vitro), mouse femoral bone; settings: 144 h, 6 days incubation of ICR mouse femoral bone
Experimental: Inhibition of Bone Resorption (in vitro)
The determination of the in vitro inhibition of bone resorption using mouse femoral bone followed the method below.
The femoral bone of 3-6 week old male ICR mice was aseptically removed, and bone marrow cavity was washed with F12 medium, containing 10% heat inactivated fetal bovine serum, penicillin G calcium (100 units/ml), kanamycin sulfate (60 μg) and 0.15% sodium hydrogencarbonate (hereinafter the medium is to be referred to as culture solution). After washing the bone marrow cavity and then removing the soft tissue adhered to the bone, the bone was subjected to incubation. The test compound was once dissolved in dimethyl sulfoxide (DMSO) to give a 10 mg/ml solution, which was diluted 1000-fold with the culture solution to give a 10 μg/ml solution. The test compounds were respectively added to the concentration shown in Table 7 and, using this culture solution (1.2 ml), the ICR mouse femoral bone was incubated in a 24 well plate for 6 days under the conditions of 5% CO2 gas, 95% air. After the completion of the incubation, the culture supernatant was recovered, and the amount of calcium suspending in the culture supernatant was quantitatively determined by the chelate method using o-cresolphthalein. The bone resorption inhibitory action of the test compound was calculated by the following formula using the incubation of the femoral bone without addition of the test compound as a control. [formula] This experiment was done with 4 cases in each group. As the control, the same amount of DMSO alone as in the case with the addition of the test compound was used.

Human SK-Mel-28 melanoma = assay: Inhibition of cell growth of SK-Mel-28 melanoma; assay type: cell-based; settings: 72 hours, MTT
Experimental: Inhibition of Cell Growth of SK-Mel-28 Melanoma
Human SK-Mel-28 melanoma (10^4 cells) and the test compound were suspended in RPMI1640 medium containing 100 μl of 10% FBS and incubated in a 96 well plate at 37° C. under 5% CO2 gas for 72 hours. After the incubation, 10 μl of MTT (5 mg/ml) was added to each well and the cells were incubated at 37° C. under 5% CO2 gas for 4 hours. Then, 10% sodium dodecyl sulfate and 0.01 N hydrochloric acid solution were each added by 10 μl to respective wells. After the plate was stood overnight, absorbance at 570 nm was measured using a microplate reader and the inhibition percentage (% cytotoxicity) was calculated by the following formula.
The cytotoxicity against human cultured tumor cells was confirmed by pigment method (Carmichael et al., Cancer Res., 47, 936-942, 1987: Mosman, J. Immunol. Methods, 65, 55-63, 1983) using 3-(4,5-dimethylthiazol-2-yl)-2,5-diphenyltetrazolium bromide (MTT).
The test compound was dissolved in dimethyl sulfoxide and diluted with RPMI 1640 medium before use. The final dimethyl sulfoxide concentration was adjusted to not more than 0.25%.

[3] = tested on: thoractic aorta ring contracted with phenylephrine; assay: Vasodilating action on phenylephrine-contracted thoracic aorta rings; settings: rabbit aortic ring, phenylephrine 10^−6 M contraction; concentration for 50% relaxation; read-out: Vasorelaxing action
Experimental: Male rabbits (body weight 1.9-3.0 kg) were anesthetized with pentobarbital sodium and exsanguinated, whereafter thoractic aorta was removed. An about 2 mm width aortic ring samples were prepared and hung in a Magnus bath (40 ml) filled with Krebs-Henseleit solution (37° C., NaCl 117 mM; KCl 4.7 mM; CaCl2 2.5 mM; MgSO4 1.2 mM; NaHCO3 24.8 mM; KH2PO4 1.2 mM; glucose 11.0 mM) at a load of 2 g. The Magnus bath was constantly bubbled with a mixed gas (95% O2+5% CO2 gas). The tension of the preparation was measured with an isomeric transducer (TB-611T, Nippon Koden). The preparation was contracted with phenylephrine (10^−6 M) and, after the contraction was stabilized, the test compound was added accumulatively and relaxing action was observed.

[4] = tested on: trachea specimen contracted with acetylcholine; assay: Effect on contraction by acetylcholine of trachea specimen removed from guinea pig; settings: acetylcholine 10^−6 M contraction, 50% relaxation vs papaverine 10^−4 M maximum, read-out: Trachea relaxing action
Experimental: Male Hartley guinea pigs (body weight 260-390 g) were anesthetized by the peritoneal administration of pentobarbital sodium (100 mg/kg) and exsanguinated, whereafter trachea was removed. The anterior cartilage of the trachea was opened and the band was cut in a 3 mm width strip to give a specimen. The specimen was hung in a Magnus bath (40 ml) filled with Krebs-Henseleit solution (NaCl 117 mM; KCl 4.7 mM; CaCl2 2.5 mM; MgSO4 1.2 mM; NaHCO3 24.8 mM; KH2PO4 1.2 mM; glucose 11.0 mM) at a load of 1 g. The Magnus bath was constantly bubbled with a mixed gas (95% O2+5% CO2 gas). The tension of the strip was measured with an isomeric transducer (TB-611T, Nippon Koden) and depicted on a recorder (Ti-102, Tokai Irika).

[5] = biological target: T1, Human Platelet Rho Kinase (p160ROCK) (Homo sapiens, UniProt Q13464); assay: Rho kinase inhibitory action (inhibition of human platelet Rho kinase (p160ROCK)); assay type: biochemical; settings: histone substrate, 1 μM ATP
T1 construct: Human platelet p160ROCK was isolated by the method of Ishizaki et al; from tissue; host or cells: human platelets
T1 sequence (Q13464 whole entry): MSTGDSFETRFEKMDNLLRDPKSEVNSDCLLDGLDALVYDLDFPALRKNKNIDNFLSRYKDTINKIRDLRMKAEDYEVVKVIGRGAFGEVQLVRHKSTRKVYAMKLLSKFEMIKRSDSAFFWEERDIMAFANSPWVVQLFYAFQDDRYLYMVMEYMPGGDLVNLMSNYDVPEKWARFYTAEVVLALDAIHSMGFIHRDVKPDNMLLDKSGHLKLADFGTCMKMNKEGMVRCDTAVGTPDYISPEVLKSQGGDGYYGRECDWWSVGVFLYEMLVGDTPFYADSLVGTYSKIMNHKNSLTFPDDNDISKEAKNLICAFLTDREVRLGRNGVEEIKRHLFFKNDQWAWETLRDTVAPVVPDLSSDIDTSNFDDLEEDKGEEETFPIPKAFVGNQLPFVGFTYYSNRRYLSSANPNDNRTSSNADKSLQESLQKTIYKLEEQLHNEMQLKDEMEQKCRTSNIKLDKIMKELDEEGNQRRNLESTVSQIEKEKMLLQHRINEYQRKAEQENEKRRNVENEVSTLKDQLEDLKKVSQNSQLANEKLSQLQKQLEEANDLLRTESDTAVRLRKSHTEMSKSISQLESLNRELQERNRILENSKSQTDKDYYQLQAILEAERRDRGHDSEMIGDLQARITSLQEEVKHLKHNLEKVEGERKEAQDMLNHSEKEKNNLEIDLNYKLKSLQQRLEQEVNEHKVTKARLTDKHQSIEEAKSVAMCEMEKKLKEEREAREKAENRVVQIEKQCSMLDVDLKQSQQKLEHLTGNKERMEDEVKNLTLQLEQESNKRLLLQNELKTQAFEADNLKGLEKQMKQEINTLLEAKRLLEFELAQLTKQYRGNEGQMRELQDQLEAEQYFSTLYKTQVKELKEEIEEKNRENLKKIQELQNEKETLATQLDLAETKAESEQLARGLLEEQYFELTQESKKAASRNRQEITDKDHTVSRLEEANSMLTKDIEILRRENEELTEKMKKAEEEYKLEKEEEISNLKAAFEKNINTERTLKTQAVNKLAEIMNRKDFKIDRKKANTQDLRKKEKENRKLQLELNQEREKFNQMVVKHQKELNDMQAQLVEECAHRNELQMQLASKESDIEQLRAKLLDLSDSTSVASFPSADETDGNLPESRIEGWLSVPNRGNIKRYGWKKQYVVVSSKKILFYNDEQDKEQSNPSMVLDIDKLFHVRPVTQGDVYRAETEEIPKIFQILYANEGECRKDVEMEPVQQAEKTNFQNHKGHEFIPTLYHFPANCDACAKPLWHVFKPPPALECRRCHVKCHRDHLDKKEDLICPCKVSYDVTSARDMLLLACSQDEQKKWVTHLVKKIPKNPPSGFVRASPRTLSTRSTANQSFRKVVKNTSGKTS
Experimental: Rho Kinase Inhibitory Action (Inhibition of Human Platelet Rho Kinase (p160ROCK))
Kinase assay included the following steps. That is, a reaction mixture (total amount 30 μl) containing 50 mM Hepes-NaOH (pH=7.4), 10 mM MgCl2, 5 mM MnCl2, 2 mM dithiothreitol, 0.02% Brij35, 1 μM [γ-^32P]ATP, 330 μg/ml histone, p160ROCK (2 μl) isolated by the method of Ishizaki et al. and the test compound was incubated at 30° C. for 20 minutes. The solution was mixed with a 1/3 amount of 4× Laemmli sample buffer, boiled for 5 minutes and applied to SDS-PAGE. The gel was stained with Coomassie Brilliant Blue and dried. The band of histone was cut out and assayed for radioactivity.

[6] = tested on: BALB/c spleen cells stimulated with C57BL/6 spleen cells; assay: Inhibition of mouse allogenic mixed lymphocyte reaction; assay type: cell-based; settings: Mus musculus, Lymphocyte, 96 h; 4 days culture, MTT; read-out: Mouse allogenic MLR inhibitory activity IC50
Experimental: Inhibition of Mouse Allogenic Mixed Lymphocyte Reaction
A mouse allogenic mixed lymphocyte reaction (hereinafter to be referred to as mouse allogenic MLR) was performed by mixed culture (equal ratio) of the spleen cell of BALB/c mice as the reaction cell and the spleen cell of C57BL/6 mice treated with mitomycin C as stimulated cell.
The reaction cells were prepared by the following method. Spleen was removed from 5-6 week old BALB/c mice and treated with RPMI1640 medium (containing kanamycin sulfate (60 μg/ml), penicillin G potassium (100 units/ml), N-2-hydroxyethylpiperazine-N′-2-ethanesulfonate (10 mM), 0.1% sodium hydrogencarbonate and L-glutamin (2 mM)) supplemented with 5% heat inactivated fetal bovine serum (FBS) to give a single cell suspension of the spleen cell. After hemolysis treatment, the suspension was adjusted to10^7 cells/ml with RPMI1640 medium containing 10^−4 M 2-mercaptoethanol and 10% FBS and used as a reaction cell suspension.
The reaction cell suspension (50 μl) prepared by the above method, stimulated cell suspension (50 μl) and the test compound (100 μl) prepared using RPMI1640 medium containing 10% FBS were added to a 96 well plate and incubated at 37° C. under 5% CO2 gas, 95% air for 4 days.
A pigment assay using 3-(4,5-dimethylthiazol-2-yl)-2,5-diphenyltetrazolium bromide (MTT) was applied for the determination of lymphocyte transformation reaction.
After the completion of culture, the supernatant (100 μl) in each well was removed, and 5 mg/ml MTT solution (20 μl) was added to each well, which was followed by incubation at 37° C. for 4 hours. Then, a 0.01 N hydrochloric acid solution (100 μl) containing 10% sodium dodecyl sulfate was added and the mixture was incubated at 37° C. overnight. The resulting purple crystals of formazan was dissolved and absorbance at 550 nm was measured using a microplate absorption meter, which was used as the index of lymphocyte transformation reaction of the mouse allogenic MLR. The inhibition of mouse allogenic MLR was evaluated by calculating the inhibition percentage by the following formula The results are shown in Table 7.

| Compound | IC50 [2] [µM] | IC50 (Human SK-Mel-28 melanoma) [µM] | further results |
| --- | --- | --- | --- |
| C[C@@H](N)c1ccc(C(=O)Nc2ccncc2)cc1 [Compound 157.HCl.H2O, (R)-(+)-N-(4-pyridyl)-4-(1-aminoethyl)benzamide] | 55 |  | Increase in skin blood flow ± standard error (%) [1]: 211.6 ± 13.6% |
| N=C(N)NC[C@H]1CC[C@H](C(=O)Nc2ccnc3[nH]ccc23)CC1 [Compound 142.2HCl.H2O, trans-N-(1H-pyrrolo[2,3-b]pyridin-4-yl)-4-guanidinomethylcyclohexanecarboxamide] |  | 59 | inhibition at 100 µM (mouse femoral bone): 44.2% |
| CCCCCCCCNC(=N)NC[C@H]1CC[C@H](C(=O)Nc2ccnc3[nH]ccc23)CC1 [compound 153.2HCl, trans-N-(1H-pyrrolo[2,3-b]pyridin-4-yl)-4-(3-octylguanidinomethyl)cyclohexanecarboxamide] | 27 |  |  |
| C[C@@H](N)c1ccc(C(=O)Nc2ccnc3[nH]ccc23)cc1N=[N+]=[N-] [Compound 179.2HBr.1/2H2O, (R)-(−)-N-(1H-pyrrolo[2,3-b]pyridin-4-yl)-4-(1-aminoethyl)-3-azidebenzamide] |  |  | IC50 [3]: 0.03 µM; IC50 [4]: 0.029 µM |
| C[C@@H](N)c1ccc(C(=O)Nc2ccncc2)cc1Cl [compound 163.2HBr, (R)-(+)-N-(4-pyridyl)-4-(1-aminoethyl)-3-chlorobenzamide] | 63 |  |  |
| NC[C@H]1CC[C@H](C(=O)Nc2ncnc3[nH]ncc23)CC1 [Compound 115.2HBr.1/4H2O, trans-N-(1H-pyrazolo[3,4-d]pyrimidin-4-yl)-4-aminomethylcyclohexanecarboxamide] |  | 9 |  |
| Cn1ccc2c(NC(=O)[C@H]3CC[C@H](CNC(=N)N)CC3)ccnc21 [Compound 145.2HCl.H2O, trans-N-(1-methylpyrrolo[2,3-b]pyridin-4-yl)-4-(guanidinomethyl)cyclohexanecarboxamide] |  | 62 |  |
| CC1CNCCN1S(=O)(=O)c1cccc2cnccc12 (stereo not drawn) [Compound 308.2HCl, 1-(5-isoquinolinesulfonyl)-2-methylpiperazine] |  |  | IC50 [5]: 5 µM; IC50 [6]: 13.9 µM |
